Reference: patent US20250197374A1, “WEE1 DEGRADING COMPOUNDS AND USES THEREOF” (BRISTOL-MYERS SQUIBB COMPANY, priority 2023, published 2025)
Where two headings read alike, the source gives them in different places.

What was measured:
Type in all cases: cell-based
WEE1 = target: T1, WEE1 (Homo sapiens, UniProt P30291+Q96SW2); assay: WEE1-ePL degradation assay (293T-LentiX, InCELL Hunter luminescence, 4 hr); conditions: for DC50: LentiX-HEK293T cells expressing WEE1-ePL, 4 hr incubation, read-out: 293T-LentiX WEE1-ePL Degradation 4 hr EC50; for 293T-LentiX WEE1-ePL Degradation 4 hr YMin (%): lower limit of fit, % of DMSO control signal remaining
T1 construct: C-terminal ePL-tagged (DiscoverX, Fremont, CA) full-length WEE1 expression construct; expressed in transfected cells; host or cells: LentiX-HEK293T (Invitrogen), lentivirally transduced; the cells also over-express GSPT1-GN
T1 sequence (P30291 whole entry): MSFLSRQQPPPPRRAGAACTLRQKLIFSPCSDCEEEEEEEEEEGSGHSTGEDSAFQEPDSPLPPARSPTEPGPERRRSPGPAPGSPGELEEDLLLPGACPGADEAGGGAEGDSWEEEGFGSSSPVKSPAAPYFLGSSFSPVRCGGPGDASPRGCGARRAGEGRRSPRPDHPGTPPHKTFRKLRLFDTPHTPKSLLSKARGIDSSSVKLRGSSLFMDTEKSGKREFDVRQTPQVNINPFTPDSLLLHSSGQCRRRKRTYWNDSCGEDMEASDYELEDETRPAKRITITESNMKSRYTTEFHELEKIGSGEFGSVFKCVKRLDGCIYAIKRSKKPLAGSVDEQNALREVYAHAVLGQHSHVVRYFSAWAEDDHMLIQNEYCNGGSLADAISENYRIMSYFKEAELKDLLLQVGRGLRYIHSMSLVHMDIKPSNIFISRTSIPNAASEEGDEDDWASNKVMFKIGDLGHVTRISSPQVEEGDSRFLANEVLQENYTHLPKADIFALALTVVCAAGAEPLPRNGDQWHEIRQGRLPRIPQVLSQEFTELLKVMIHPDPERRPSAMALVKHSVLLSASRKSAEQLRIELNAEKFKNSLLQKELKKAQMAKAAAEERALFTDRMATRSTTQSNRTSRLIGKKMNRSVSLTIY
T1 sequence (Q96SW2 whole entry): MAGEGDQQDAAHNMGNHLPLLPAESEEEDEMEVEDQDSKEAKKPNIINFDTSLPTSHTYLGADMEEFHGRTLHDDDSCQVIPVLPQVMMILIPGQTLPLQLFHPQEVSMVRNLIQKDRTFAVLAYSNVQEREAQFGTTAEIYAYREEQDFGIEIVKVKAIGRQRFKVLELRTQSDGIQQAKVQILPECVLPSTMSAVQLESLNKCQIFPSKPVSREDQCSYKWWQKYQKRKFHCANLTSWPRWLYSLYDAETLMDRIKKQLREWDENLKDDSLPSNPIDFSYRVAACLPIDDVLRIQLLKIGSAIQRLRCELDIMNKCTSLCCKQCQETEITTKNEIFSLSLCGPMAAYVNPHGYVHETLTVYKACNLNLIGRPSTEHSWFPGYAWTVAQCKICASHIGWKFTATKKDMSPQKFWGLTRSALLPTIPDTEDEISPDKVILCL
T1 sequence (Q16531 whole entry partner): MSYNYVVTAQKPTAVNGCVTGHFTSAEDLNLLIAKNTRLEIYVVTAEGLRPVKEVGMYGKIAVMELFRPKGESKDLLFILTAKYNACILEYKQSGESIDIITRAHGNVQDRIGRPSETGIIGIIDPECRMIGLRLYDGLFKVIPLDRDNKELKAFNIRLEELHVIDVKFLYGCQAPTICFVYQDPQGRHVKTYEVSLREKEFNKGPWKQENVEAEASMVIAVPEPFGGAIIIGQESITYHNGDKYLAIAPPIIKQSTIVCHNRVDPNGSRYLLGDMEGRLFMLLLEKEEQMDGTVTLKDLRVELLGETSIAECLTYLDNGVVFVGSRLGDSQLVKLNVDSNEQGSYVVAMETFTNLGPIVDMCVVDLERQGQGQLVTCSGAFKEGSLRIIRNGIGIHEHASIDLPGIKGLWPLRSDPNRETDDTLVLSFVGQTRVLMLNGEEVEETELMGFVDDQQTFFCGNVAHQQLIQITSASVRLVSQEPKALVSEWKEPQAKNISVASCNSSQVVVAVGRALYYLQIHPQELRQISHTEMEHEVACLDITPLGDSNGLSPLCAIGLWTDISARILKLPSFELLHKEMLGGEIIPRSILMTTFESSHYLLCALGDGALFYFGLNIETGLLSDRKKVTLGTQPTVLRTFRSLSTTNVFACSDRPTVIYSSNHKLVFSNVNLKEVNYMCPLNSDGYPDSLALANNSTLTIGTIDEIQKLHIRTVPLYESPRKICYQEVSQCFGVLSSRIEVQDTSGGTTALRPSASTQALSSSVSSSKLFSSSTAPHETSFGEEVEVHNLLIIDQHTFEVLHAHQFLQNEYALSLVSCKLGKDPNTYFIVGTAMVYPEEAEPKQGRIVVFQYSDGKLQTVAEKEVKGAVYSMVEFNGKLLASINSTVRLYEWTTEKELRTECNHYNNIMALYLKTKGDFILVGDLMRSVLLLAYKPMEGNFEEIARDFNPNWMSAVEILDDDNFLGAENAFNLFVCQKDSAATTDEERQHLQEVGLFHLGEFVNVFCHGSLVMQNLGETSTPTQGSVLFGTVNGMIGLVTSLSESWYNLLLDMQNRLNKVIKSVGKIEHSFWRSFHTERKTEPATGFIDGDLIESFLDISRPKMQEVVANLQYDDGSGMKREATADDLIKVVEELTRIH
How it was run: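 LentiX-HEK293T cells expressing C-terminally ePL-tagged full-length WEE1 plus non-degradable GSPT1-GN (G575N, N-terminal 158 aa truncated). Treated 4 h at 37 °C with a 10-point, 3-fold series from 1 or 10 µM, then read by InCELL Hunter luminescence. EC50 from four-parameter logistic fit, Ymax set by DMSO control.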

MKN45 cells = assay: MKN45 cell proliferation assay (Cell-Titer-Glo, 120 hr); conditions: for EC50: Homo sapiens, MKN-45, 120 h, read-out: MKN45 Cell Prolif. 120 hr EC50; for MKN45 Cell Prolif. 120 hr YMin (%): minimal percent of DMSO control observed
How it was run: (§1)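 MKN45 (400/well) and MDA-MB-231 (800/well) cells in RPMI with 10% FBS were exposed to 10-point half-log doses from 1 or 10 uM (0.1% DMSO) for 120 h at 37 °C. Viability was read by CellTiter-Glo luminescence. EC50 came from blank-subtracted, %DMSO four-parameter fits, with Ymin-obs as the lowest %DMSO observed.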

MDA-MB-231 cells = assay: MDA-MB-231 cell proliferation assay (Cell-Titer-Glo, 120 hr); conditions: for EC50: read-out: MDA-MB 231 Cell Prolif. 120 hr EC50; for MDA-MB 231 Cell Prolif. 120 hr YMin (%): minimal percent of DMSO control observed
How it was run: as §1

[1] = Homo sapiens, MDA-MB-231, 120 h

Structure (SMILES) | DC50 (WEE1) [nM] | 293T-LentiX WEE1-ePL Degradation 4 hr YMin (%) (WEE1) | EC50 (MKN45 cells) [nM] | MKN45 Cell Prolif. 120 hr YMin (%) (MKN45 cells) | EC50 (MDA-MB-231 cells; [1]) [nM] | MDA-MB 231 Cell Prolif. 120 hr YMin (%) (MDA-MB-231 cells) | EC50 (MDA-MB-231 cells) [nM]
COC[C@@H]1CN(Cc2ccc3nc(C4CCOCC4)cnc3c2)C[C@H]1Oc1ccc2c(c1)CN([C@H]1CCC(=O)NC1=O)C2=O [Example 136, (3S)-3-(5-{[(3S,4S)-4-(methoxymethyl)-1-{[2-(oxan-4-yl)quinoxalin-6-yl]methyl}pyrrolidin-3-yl]oxy}-1-oxo-2,3-dihydro-1H-isoindol-2-yl)piperidine-2,6-dione] | 2 | 31.9 | 41 | 26.6 | 287 | 91.8 | 
COC[C@@H]1CN(Cc2cc(F)c3nc(CC(C)(C)O)ncc3c2)C[C@H]1Oc1ccc2c(c1)CN([C@H]1CCC(=O)NC1=O)C2=O [Example 107, (3S)-3-(5-{[(3S,4S)-1-{[8-fluoro-2-(2-hydroxy-2-methylpropyl)quinazolin-6-yl]methyl}-4-(methoxymethyl)pyrrolidin-3-yl]oxy}-1-oxo-2,3-dihydro-1H-isoindol-2-yl)piperidine-2,6-dione] | 8 | 19.5 | 13 | 10.4 | 134 | 51.6 | 
COC[C@@H]1CN(Cc2cc3ccc(N4CCOCC4)c(F)c3cn2)C[C@H]1Oc1ccc2c(c1)CN([C@H]1CCC(=O)NC1=O)C2=O [Example 48, (3S)-3-(5-{[(3S,4S)-1-{[8-fluoro-7-(morpholin-4-yl)isoquinolin-3-yl]methyl}-4-(methoxymethyl)pyrrolidin-3-yl]oxy}-1-oxo-2,3-dihydro-1H-isoindol-2-yl)piperidine-2,6-dione] |  | 22.9 | 1 | 7.8 | 4 | 22.0 | 
COC[C@@H]1CN(Cc2cc(F)c3nc(N4CCN(CC(F)(F)F)CC4)ncc3c2)C[C@H]1Oc1ccc2c(c1)CN([C@H]1CCC(=O)NC1=O)C2=O [Example 35, (3S)-3-(5-{[(3S,4S)-1-({8-fluoro-2-[4-(2,2,2-trifluoroethyl)piperazin-1-yl]quinazolin-6-yl}methyl)-4-(methoxymethyl)pyrrolidin-3-yl]oxy}-1-oxo-2,3-dihydro-1H-isoindol-2-yl)piperidine-2,6-dione] | 1 | 28.1 | 2 | 10.0 | 33 | 16.7 | 
COC[C@@H]1CN(Cc2cc(F)c3nc(C4CCCOC4)ncc3c2)C[C@H]1Oc1ccc2c(c1)CN([C@H]1CCC(=O)NC1=O)C2=O (relative stereo) [Example 78, rel-(3S)-3-(5-{[(3S,4S)-1-{[8-fluoro-2-(oxan-3-yl)quinazolin-6-yl]methyl}-4-(methoxymethyl)pyrrolidin-3-yl]oxy}-1-oxo-2,3-dihydro-1H-isoindol-2-yl)piperidine-2,6-dione] | 3 | 27.1 | 4 | 7.7 | 27 | 22.5 | 
COC[C@@H]1CN(Cc2ccc3nc(N4C[C@H]5CCO[C@H]5C4)ncc3c2)C[C@H]1Oc1ccc2c(c1)CN([C@H]1CCC(=O)NC1=O)C2=O (single isomer, unassigned) [Example 8, (S)-3-(5-(((3S,4S)-1-((2-((3aR*,6aR*)-hexahydro-5H-furo[2,3-c]pyrrol-5-yl)quinazolin-6-yl)methyl)-4-(methoxymethyl)pyrrolidin-3-yl)oxy)-1-oxoisoindolin-2-yl)piperidine-2,6-dione] | 4 | 27.5 | 6 | 10.0 | 105 | 31.9 | 
COC[C@@H]1CN(Cc2ccc3nc(C4CCOCC4)ccc3n2)C[C@H]1Oc1ccc2c(c1)CN([C@H]1CCC(=O)NC1=O)C2=O [Example 128, (3S)-3-(5-{[(3S,4S)-4-(methoxymethyl)-1-{[6-(oxan-4-yl)-1,5-naphthyridin-2-yl]methyl}pyrrolidin-3-yl]oxy}-1-oxo-2,3-dihydro-1H-isoindol-2-yl)piperidine-2,6-dione] | 1 | 30.5 | 11 | 18.2 | 127 | 83.3 | 
COC[C@@H]1CN(Cc2cc(F)c3nc(C45CC(C(C)(C)O)(C4)C5)ccc3c2)C[C@H]1Oc1ccc2c(c1)CN([C@H]1CCC(=O)NC1=O)C2=O [Example 56, (3S)-3-(5-{[(3S,4S)-1-({8-fluoro-2-[3-(2-hydroxypropan-2-yl)bicyclo[1.1.1]pentan-1-yl]quinolin-6-yl}methyl)-4-(methoxymethyl)pyrrolidin-3-yl]oxy}-1-oxo-2,3-dihydro-1H-isoindol-2-yl)piperidine-2,6-dione] |  | 29.9 |  | 10.0 | 19 | 25.5 | 
CN1CC2(CC(c3ccc4cc(CN5CC[C@H](Oc6ccc7c(c6)CN([C@H]6CCC(=O)NC6=O)C7=O)C5)ccc4n3)CO2)C1 (single isomer, unassigned) [Example 1, (S)-3-(5-(((S)-1-((2-((R*)-2-methyl-5-oxa-2-azaspiro[3.4]octan-7-yl)quinolin-6-yl)methyl)pyrrolidin-3-yl)oxy)-1-oxoisoindolin-2-yl)piperidine-2,6-dione] | 368 | 30.7 | 75 | 16.1 |  | 70.9 | 1560
COC[C@@H]1CN(Cc2ccc3nc(N4CCN(C(C)=O)C5(CC5)C4)ccc3c2)C[C@H]1Oc1ccc2c(c1)CN([C@H]1CCC(=O)NC1=O)C2=O [Example 89, (3S)-3-(5-{[(3S,4S)-1-[(2-{4-acetyl-4,7-diazaspiro[2.5]octan-7-yl}quinolin-6-yl)methyl]-4-(methoxymethyl)pyrrolidin-3-yl]oxy}-1-oxo-2,3-dihydro-1H-isoindol-2-yl)piperidine-2,6-dione] | 1 | 30.2 | 1 | 8.4 | 9 | 16.8 | 
O=C1CC[C@H](N2Cc3cc(O[C@H]4CN(Cc5cc(F)c6nc(C7CCOCC7)ccc6c5)C[C@@H]4c4ccccc4)ccc3C2=O)C(=O)N1 (relative stereo) [Example 145, (S)-3-(5-(((3R*,4S*)-1-((8-fluoro-2-(tetrahydro-2H-pyran-4-yl)quinolin-6-yl)methyl)-4-phenylpyrrolidin-3-yl)oxy)-1-oxoisoindolin-2-yl)piperidine-2,6-dione] | 4 | 22.4 | 33 | 16.3 | 2370 | 74.7 | 
COC[C@@H]1CN(Cc2cc(F)c3nc(C4CCCN4C)ccc3c2)C[C@H]1Oc1ccc2c(c1)CN([C@H]1CCC(=O)NC1=O)C2=O (relative stereo) [Example 66, rel-(3S)-3-(5-(((3S,4S)-1-((8-fluoro-2-(1-methylpyrrolidin-2-yl)quinolin-6-yl)methyl)-4-(methoxymethyl)pyrrolidin-3-yl)oxy)-1-oxoisoindolin-2-yl)piperidine-2,6-dione] | 3 | 32.7 | 5 | 13.9 | 107 | 57.1 | 
COC[C@@H]1CN(Cc2ccc3nc(N4C[C@H]5CCO[C@H]5C4)ccc3c2)C[C@H]1Oc1ccc2c(c1)CN([C@H]1CCC(=O)NC1=O)C2=O (single isomer, unassigned) [Example 5, (S)-3-(5-(((3S,4S)-1-((2-((3aR*,6aR*)-hexahydro-5H-furo[2,3-c]pyrrol-5-yl)quinolin-6-yl)methyl)-4-(methoxymethyl)pyrrolidin-3-yl)oxy)-1-oxoisoindolin-2-yl)piperidine-2,6-dione] | 1 | 32.3 | 1 | 10.6 | 12 | 45.5 | 
O=C1CC[C@H](N2Cc3cc(O[C@H]4CCN(Cc5ccc6nc([C@@H]7CCO[C@@]8(CCOC8)C7)ccc6c5)C4)ccc3C2=O)C(=O)N1 (relative stereo) [Example 20, rel-(3S)-3-(5-(((3S)-1-((2-(2,6-dioxaspiro[4.5]decan-9-yl)quinolin-6-yl)methyl)pyrrolidin-3-yl)oxy)-1-oxoisoindolin-2-yl)piperidine-2,6-dione] | 1 | 30.3 | 5 | 11.6 | 101 | 60.2 | 
